Measured values as given in article PMC9736856, “Biological Investigation and Chemical Study of Brassica villosa subsp. drepanensis (Brassicaeae) Leaves” (Molecules, 2022).

Legend:
[1] = ABTS radical-scavenging assay; conditions: cell free
Description: In this assay, a solution of ABTS radical cations was mixed with a potassium persulphate solution and stored at room temperature for 12 h. The obtained solution was diluted with ethanol, read to obtain an absorbance of 0.70 at 734 nm, and added to the tested sample (1–400 μg/mL). After 6 min, the absorbance was read at 734 nm. Ascorbic acid was the positive control. The ABTS radical-scavenging ability was calculated with this equation: [(A0−A1)/A0] × 100, where A0 is the absorbance of the control and A1 is the absorbance in the presence of the samples.

[2] = β-carotene bleaching test
Description: The β-carotene bleaching test was performed following the procedure previously described, using propyl gallate as the positive control. […] The microplate was located in a water bath at 45 °C and the absorbance was read at 470 nm against a blank at t = 0 and after 30 and 60 min of incubation.

DPPH test = conditions: positive control
Description: Free radical-scavenging capacity was analysed through the ability of the total extract and the fractions to bleach the stable radical DPPH. […] Briefly, after 10 min at room temperature, the absorbance at λ = 517 nm of the DPPH reaction mixture containing different concentrations of […] extract (125-1000 μg/mL) in 1 mL of ethanol was recorded. Results, expressed as decrease in absorbance, represent the average ± S.D. of three independent experiments.

CaCo-2 cells = assay: MTT assay, CaCo-2; format: cell-based; conditions: Homo sapiens, read-out: IC50 (MTT, cytotoxicity standard)
Description: The human foreskin fibroblast cell line HFF-1 (ATCC® SCRC-1041.1) was maintained in DMEM supplemented with 15% v/v foetal bovine serum (FBS), 4.5 g/L glucose, 100 U/mL penicillin, and […] streptomycin. HFF-1 was used as an in vitro human model for preliminary toxicity screening. Mouse leukemic monocyte-macrophage cells RAW 264.7 (Sigma-Aldrich 91062702) were cultured in EMEM supplemented with 2 mM L-Glutamine (Euroclone, Milan, Italy), 1% non-essential amino acids, 10% FBS, and penicillin/streptomycin/amphotericin. […] was used as an in vitro model of LPS-induced inflammation. Human colon carcinoma cells CaCo-2 (ATCC®, HTB-37) were cultured in DMEM supplemented with 10% FBS, 1 mmol/L sodium pyruvate, 2 mmol/L L-glutamine, streptomycin ([…]), and penicillin (50 U/mL). […]
HFF-1, RAW 264.7, CaCo-2, DU145, 1321N1, and U87 MG cells were treated with different concentrations of total extract (25–50–100–150–250–500–1000 μg/mL), while RAW 264.7 cells were also treated with the fractions obtained from the total extract (EtOAc, n-BuOH, and H2O) at the same concentrations (25–50–100–150–250–500–1000 μg/mL) for 24 h. […] The absorbance of the converted formazan was measured using a microplate spectrophotometer reader (Titertek Multiskan, Flow Laboratories, Helsinki, Finland) at λ = 570 nm. […]

[3] = SOD-like activity (superoxide anion scavenging, NADH oxidation); conditions: positive control
Description: The scavenger effect of B. drepanensis extract and the fractions on superoxide anions was recorded as a decrease in absorbance at λ = 340 nm, as previously reported by Salerno et al.. […] SOD (80 mU) was used as a reference compound.

Molecule: O=C1O[C@H]([C@@H](O)CO)C(O)=C1O [Ascorbic acid, ascorbic acid]
- ABTS Test IC50 [1]: 1.73 ± 0.06 µg/mL

Molecule: CCCOC(=O)c1cc(O)c(O)c(O)c1 [Propyl gallate, propyl gallate]
- β-Carotene Bleaching Test IC50 ([2]; after 30 min of incubation): 0.09 ± 0.04 µg/mL
- β-Carotene Bleaching Test IC50 ([2]; after 60 min of incubation): 0.09 ± 0.04 µg/mL

Molecule: Cc1c(C)c2c(c(C)c1O)CCC(C)(C(=O)O)O2 (stereo not drawn) [Trolox]
- IC50 (DPPH test): 15 µM

Molecule: COc1cccc2c1C(=O)c1c(O)c3c(c(O)c1C2=O)C[C@@](O)(C(=O)CO)C[C@@H]3O[C@H]1C[C@H](N)[C@H](O)[C@H](C)O1 [doxorubicin, Doxorubicin]
- IC50 (CaCo-2 cells): 21 ± 0.3 µM

Molecule: superoxide dismutase [SOD]
- SOD-like Activity IC50 [3]: 40 mU ± 0.85
